The values that follow come from patent publication US7563787B2, “Substituted pyrazole compounds” (Miikana Therapeutics, Inc., priority 2005, dated 2009).

The test system of one assay is HCT-116 cell growth. The experiment in a line: Whole Cell Cytotoxicity Assay: Sulforhodamine B. The conditions noted are these: Homo sapiens, HCT-116; 100 μM compound; 96 hours; SRB staining. Type of assay: cell-based, Human.
The next assay has as its target T1, recombinant Aurora A (Homo sapiens, UniProt O14965).
T1 construct: purchased Upstate, Lake Placid, N.Y
T1 sequence (O14965 1-403): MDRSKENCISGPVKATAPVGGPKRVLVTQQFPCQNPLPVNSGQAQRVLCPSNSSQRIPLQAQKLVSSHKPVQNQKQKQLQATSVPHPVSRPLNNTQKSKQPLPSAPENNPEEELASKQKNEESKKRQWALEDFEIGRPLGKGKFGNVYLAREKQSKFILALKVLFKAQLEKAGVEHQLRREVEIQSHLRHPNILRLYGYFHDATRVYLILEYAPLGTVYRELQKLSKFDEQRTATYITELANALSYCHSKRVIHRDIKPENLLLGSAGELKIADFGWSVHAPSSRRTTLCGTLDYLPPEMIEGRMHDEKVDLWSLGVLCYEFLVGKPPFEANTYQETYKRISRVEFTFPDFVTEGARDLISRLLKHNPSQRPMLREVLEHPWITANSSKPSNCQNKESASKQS
The experiment in a line: Aurora A (Aurora 2) Inhibition Assay (Z'-Lyte). Type of assay: biochemical. The conditions noted are these: 100 μM compound; ATP 10 μM; 1 h.

In the next assay the target is T2, Aurora B kinase (Homo sapiens, UniProt Q96GD4).
T2 construct: purchased BPS Biosciences, San Diego, Calif
The experiment in a line: Aurora B (Aurora 1) Inhibition Assay. Format: biochemical. The settings on record: 100 μM compound; ATP 50 μM; 16 h. The method, then:
Assays for Aurora B kinase inhibition were carried out similarly to those for Aurora A kinase (see above) with the following modifications. Aurora B kinase (BPS Biosciences, San Diego, Calif.) was used as the enzyme, at a concentration was 2.5 μg/mL. The ATP concentration was 50 μM, and the kinase reaction was allowed to proceed for 16 h. Sodium orthovanadate (20 μM) was added to the buffer to inhibit contaminating phosphatases.

Assay [1] concerns the target T3, recombinant human KDR, residues 790-end (Homo sapiens, UniProt P35968).
T3 construct: recombinant human KDR, residues 790-end; His6 (N); purchased Upstate USA Inc, Charlottesville, Va
The assay is described as follows: KDR Kinase Inhibition Assay. Type of assay: biochemical. The settings on record: read-out: inhibition of KDR at a concentration of 1 μM.
Method: Compounds were assayed for KDR kinase inhibitory activity using N-terminal His6-tagged recombinant human KDR, residues 790-end (Upstate USA Inc, 706 Forest Street, Charlottesville, Va.). Serial dilutions of compound were assayed in a final reaction volume of 25 μL by incubating a solution of the above KDR kinase (5-10 mU), 8 mM MOPS (3-(N-morpholino) propanesulfonic acid) pH 7.0, 0.2 mM EDTA (ethylenediamine tetracetic acid), 0.33 mg/mL myelin basic protein (Upstate USA Inc, 706 Forest Street, Charlottesville, Virginia), and 10 mM magnesium acetate and [γ-^33P-ATP] (specific activity of about 500 cpm/pmol, concentration as required). The reaction was initiated by the addition of the magnesium acetate and [γ-^33P-ATP] mixture. After incubation for 40 minutes at room temperature, the reaction was stopped by the addition of 5 μL of a 3% phosphoric acid solution. A 10 μL aliquote of the reaction was then spotted onto a P30 filtermat (PerkinElmer, Wellesley, Mass.) and washed three times for five minutes in 75 mM phosphoric acid and once in methanol prior to drying and scintillation counting. Inhibition of KDR activity was determined by comparison to assays that contained no inhibitor.

The next assay concerns the target SRC (Homo sapiens, UniProt P12931). The assay is described as follows: Src Kinase Inhibition Assay. Format: biochemical. Also noted: His (N); purchased Upstate USA Inc, Charlottesville, Va. The settings on record: read-out: inhibition of Src at a concentration of 1 μM; 1 μM compound; 33P-ATP filter assay. The method, then:
Compounds were assayed for Src kinase inhibitory activity using N-terminal His-tagged human Src (Upstate USA Inc, 706 Forest Street, Charlottesville, Va.).

T2 sequence (Q96GD4 whole entry): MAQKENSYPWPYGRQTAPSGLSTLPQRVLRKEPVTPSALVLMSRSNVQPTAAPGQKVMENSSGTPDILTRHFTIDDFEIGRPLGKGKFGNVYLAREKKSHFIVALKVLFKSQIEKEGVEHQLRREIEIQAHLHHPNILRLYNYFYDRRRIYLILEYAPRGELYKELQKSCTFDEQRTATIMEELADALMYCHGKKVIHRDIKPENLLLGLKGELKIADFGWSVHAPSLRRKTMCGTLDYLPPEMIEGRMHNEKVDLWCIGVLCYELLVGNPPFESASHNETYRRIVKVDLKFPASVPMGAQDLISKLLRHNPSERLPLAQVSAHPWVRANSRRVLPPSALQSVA
Chain of SRC (P12931 whole entry): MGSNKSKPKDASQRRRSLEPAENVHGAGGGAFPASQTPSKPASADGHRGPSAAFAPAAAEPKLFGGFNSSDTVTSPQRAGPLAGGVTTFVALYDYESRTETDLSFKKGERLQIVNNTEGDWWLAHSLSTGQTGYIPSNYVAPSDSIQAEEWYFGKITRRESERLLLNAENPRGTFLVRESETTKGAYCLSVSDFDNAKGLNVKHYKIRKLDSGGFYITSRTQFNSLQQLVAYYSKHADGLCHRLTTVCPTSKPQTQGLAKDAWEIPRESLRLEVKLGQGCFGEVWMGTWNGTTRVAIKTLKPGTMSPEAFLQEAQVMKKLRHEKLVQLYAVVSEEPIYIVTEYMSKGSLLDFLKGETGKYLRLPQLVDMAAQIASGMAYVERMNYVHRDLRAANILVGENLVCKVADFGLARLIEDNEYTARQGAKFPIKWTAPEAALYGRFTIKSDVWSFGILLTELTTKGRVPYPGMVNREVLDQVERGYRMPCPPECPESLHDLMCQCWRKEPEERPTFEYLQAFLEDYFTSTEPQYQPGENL
T3 sequence (P35968 790-1356 limits assumed): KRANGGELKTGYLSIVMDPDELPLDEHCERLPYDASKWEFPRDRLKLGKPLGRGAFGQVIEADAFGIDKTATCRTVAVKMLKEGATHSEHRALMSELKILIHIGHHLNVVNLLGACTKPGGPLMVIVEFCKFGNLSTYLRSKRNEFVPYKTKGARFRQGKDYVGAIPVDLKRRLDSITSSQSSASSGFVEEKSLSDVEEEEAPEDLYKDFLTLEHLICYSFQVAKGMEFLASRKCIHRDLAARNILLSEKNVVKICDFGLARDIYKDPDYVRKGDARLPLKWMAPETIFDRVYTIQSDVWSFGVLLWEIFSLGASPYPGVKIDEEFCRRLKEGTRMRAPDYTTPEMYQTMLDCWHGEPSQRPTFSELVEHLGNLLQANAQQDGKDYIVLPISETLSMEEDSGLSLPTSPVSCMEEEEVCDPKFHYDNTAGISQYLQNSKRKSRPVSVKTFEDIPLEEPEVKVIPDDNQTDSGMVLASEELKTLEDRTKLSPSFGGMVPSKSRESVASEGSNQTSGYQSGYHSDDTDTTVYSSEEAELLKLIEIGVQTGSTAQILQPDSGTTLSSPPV

As for `Cc1cc(Nc2nc(/C=C/c3ccccc3)nc(N3CCN(C)CC3)c2N)[nH]n1` [Example 10, 6-(4-methylpiperazin-1-yl)-N-(3-methyl-1H-pyrazol-5-yl)-2-[(E)-2-phenylvinyl]pyrimidin-4,5-diamine], the results for the inhibition at 100 µM in the assay with HCT-116 cell growth, on recombinant Aurora A and on Aurora B kinase were 99%, 100% and 97%, respectively.
Take `Cc1cc(Nc2cc(N3CCN(C)CC3)nc(/C=C/c3ccccc3)n2)n[nH]1` [Example 31, 6-(4-methylpiperazin-1-yl)-N-(3-methyl-1H-pyrazol-5-yl)-2-[(E)-2-phenylvinyl]pyrimidin-4-amine]: the inhibition at 100 µM is 99% in the assay with HCT-116 cell growth, 100% at recombinant Aurora A and 100% against Aurora B kinase. Also, the inhibition at 1 µM in assay [1] is roughly 94%; at SRC, roughly 95%.
